# Laboratory results: ChEMBL document CHEMBL1130617, “S-aryl cysteine S,S-dioxides as inhibitors of mammalian kynureninase” (Bioorg Med Chem Lett, 1998)
# Columns and labels:
# Kynureninase [1] = molecular target: T1, Kynureninase (Rattus norvegicus, UniProt P70712); test: Compound was tested for the binding affinity against kynureninase in rat liver
# T1 sequence (P70712 whole entry): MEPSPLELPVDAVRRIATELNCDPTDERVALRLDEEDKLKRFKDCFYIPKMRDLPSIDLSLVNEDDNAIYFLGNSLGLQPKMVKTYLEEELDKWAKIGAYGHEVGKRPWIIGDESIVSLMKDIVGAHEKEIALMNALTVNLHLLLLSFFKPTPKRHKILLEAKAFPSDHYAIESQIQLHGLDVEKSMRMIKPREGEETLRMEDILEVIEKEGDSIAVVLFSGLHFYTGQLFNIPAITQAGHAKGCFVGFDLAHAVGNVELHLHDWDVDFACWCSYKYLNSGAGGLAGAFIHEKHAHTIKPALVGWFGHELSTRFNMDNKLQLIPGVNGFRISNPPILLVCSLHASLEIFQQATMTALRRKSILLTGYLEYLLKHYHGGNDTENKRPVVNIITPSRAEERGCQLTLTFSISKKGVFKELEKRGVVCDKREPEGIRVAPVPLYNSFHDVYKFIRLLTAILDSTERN
# Kynureninase [2] = molecular target: T1, Kynureninase; test: Compound was tested for the inhibition of mammalian kynureninase in rat liver; assay type: tissue-based
SMILES,Ki (Kynureninase [1]) [µM],IC50 (Kynureninase [2]) [µM]
Nc1ccccc1S(=O)(=O)CC(N)C(=O)O (stereo not given),18,36
Cc1ccc(N)c(S(=O)(=O)CC(N)C(=O)O)c1 (stereo not given),–,11
Nc1c(F)cccc1S(=O)(=O)CC(N)C(=O)O (stereo not given),–,20
COc1cccc(S(=O)(=O)CC(N)C(=O)O)c1N (stereo not given),–,29
